According to patent US20180325914A1, “INCREASING STORAGE OF VITAMIN A, VITAMIN D AND/OR LIPIDS” (Salk Institute for Biological Studies, priority 2014, published 2018):

Tested on: primary HSCs

In the case of `Cc1sc2c(c1C)C(c1ccc(Cl)cc1)=N[C@@H](CC(=O)OC(C)(C)C)c1nnc(C)n1-2` [JQ1, (S)-tert-butyl 2-(4-(4-chlorophenyl)-2,3,9-trimethyl-6H-thieno[3,2-f][1,2,4]triazolo[4,3-a][1,4]diazepin-6-yl)acetate], the “Stk39 value_2” value (Day_6_JQ1) is reported as 17.0092, the “Sulf1 value_2” value (Day_6_JQ1) is reported as 53.8118 and the “Tbxa2r value_2” value (Day_6_JQ1) is reported as 1.603. For the same molecule, the “Tcea3 value_2” value (Day_6_JQ1) was 1.947, the “Tead3 value_2” value (Day_6_JQ1) was 19.5802 and the “Thbs3 value_2” value (Day_6_JQ1) was 1.4249. The “Timp1 value_2” value (Day_6_JQ1) was 296.521, the “Tlcd2 value_2” value (Day_6_JQ1) was 7.717 and the “Tm7sf3 value_2” value (Day_6_JQ1) was 17.8846. For the same molecule, the “Tmem14a value_2” value (Day_6_JQ1) was 2.145, the “Tmem38a value_2” value (Day_6_JQ1) was 9.934 and the “Tmem45a value_2” value (Day_6_JQ1) was 21.4757. The “Tmem119 value_2” value (Day_6_JQ1) was 38.7358, the “Tpm1 value_2” value (Day_6_JQ1) was 1441.58 and the “Trf value_2” value (Day_6_JQ1) was 73.4499. For the same molecule, the “Trim46 value_2” value (Day_6_JQ1) was 1.758, the “Trnp1 value_2” value (Day_6_JQ1) was 13.5695 and the “Tsku value_2” value (Day_6_JQ1) was 19.2147. The “Tspan2 value_2” value (Day_6_JQ1) was 2.762, the “Tspan6 value_2” value (Day_6_JQ1) was 21.2613 and the “Ttc13 value_2” value (Day_6_JQ1) was 20.1057. The “Tubb2b value_2” value (Day_6_JQ1) was 18.8633, the “Tubb4 value_2” value (Day_6_JQ1) was 12.0841 and the “Txndc5 value_2” value (Day_6_JQ1) was 194.663. The “Ube2c value_2” value (Day_6_JQ1) was 30.6226, the “Unc119 value_2” value (Day_6_JQ1) was 15.3231 and the “Vash2 value_2” value (Day_6_JQ1) was 1.343. For the same molecule, the “Vegfa value_2” value (Day_6_JQ1) was 27.576, the “Wee1 value_2” value (Day_6_JQ1) was 8.031 and the “Wfs1 value_2” value (Day_6_JQ1) was 22.9762. The “Whrn value_2” value (Day_6_JQ1) was 4.993, the “Wnt4 value_2” value (Day_6_JQ1) was 18.5297 and the “Wnt5a value_2” value (Day_6_JQ1) was 7.524. For the same molecule, the “Wnt9a value_2” value (Day_6_JQ1) was 7.671, the “Ydjc value_2” value (Day_6_JQ1) was 1.905 and the “Zbtb8b value_2” value (Day_6_JQ1) was 2.023. The “Zyx value_2” value (Day_6_JQ1) was 185.005, the “1190002N15Rik value_2” value (gene 1190002N15Rik, mRNA-Seq, sample Day_6_JQ1) was 132.567 and the “Aard value_2” value (gene Aard, mRNA-Seq, sample Day_6_JQ1) was 83.973. For the same molecule, the “Abat value_2” value (gene Abat, mRNA-Seq, sample Day_6_JQ1) was 35.0761, the “Adamts5 value_2” value (gene Adamts5, mRNA-Seq, sample Day_6_JQ1) was 91.9646 and the “Aldh1a1 value_2” value (gene Aldh1a1, mRNA-Seq, sample Day_6_JQ1) was 311.654. The “Arxes2 value_2” value (gene Arxes2, mRNA-Seq, sample Day_6_JQ1) was 27.1896, the “Asf1b value_2” value (gene Asf1b, mRNA-Seq, sample Day_6_JQ1) was 22.9334 and the “Atoh8 value_2” value (gene Atoh8, mRNA-Seq, sample Day_6_JQ1) was 73.1716. For the same molecule, the “Barx1 value_2” value (gene Barx1, mRNA-Seq, sample Day_6_JQ1) was 11.4288, the “Bcmo1 value_2” value (gene Bcmo1, mRNA-Seq, sample Day_6_JQ1) was 159.902 and the “Birc5 value_2” value (gene Birc5, mRNA-Seq, sample Day_6_JQ1) was 50.4974. For the same molecule, the “Bub1 value_2” value (gene Bub1, mRNA-Seq, sample Day_6_JQ1) was 8.993, the “Casc4 value_2” value (gene Casc4, mRNA-Seq, sample Day_6_JQ1) was 36.8307 and the “Cd248 value_2” value (gene Cd248, mRNA-Seq, sample Day_6_JQ1) was 118.878. For the same molecule, the “Cdca5 value_2” value (gene Cdca5, mRNA-Seq, sample Day_6_JQ1) was 10.0872, the “Cdon value_2” value (gene Cdon, mRNA-Seq, sample Day_6_JQ1) was 16.8708 and the “Cep55 value_2” value (gene Cep55, mRNA-Seq, sample Day_6_JQ1) was 13.1668. The “Ckap2 value_2” value (gene Ckap2, mRNA-Seq, sample Day_6_JQ1) was 33.1117, the “Clca1 value_2” value (gene Clca1, mRNA-Seq, sample Day_6_JQ1) was 52.2679 and the “Col14a1 value_2” value (gene Col14a1, mRNA-Seq, sample Day_6_JQ1) was 181.433. For the same molecule, the “Ddr1 value_2” value (gene Ddr1, mRNA-Seq, sample Day_6_JQ1) was 106.289, the “Dzip1 value_2” value (gene Dzip1, mRNA-Seq, sample Day_6_JQ1) was 31.5814 and the “Efemp1 value_2” value (gene Efemp1, mRNA-Seq, sample Day_6_JQ1) was 205.387. The “Egr1 value_2” value (gene Egr1, mRNA-Seq, sample Day_6_JQ1) was 141.166, the “Emilin2 value_2” value (gene Emilin2, mRNA-Seq, sample Day_6_JQ1) was 88.1199 and the “Epha7 value_2” value (gene Epha7, mRNA-Seq, sample Day_6_JQ1) was 11.3808. The “Fam117a value_2” value (gene Fam117a, mRNA-Seq, sample Day_6_JQ1) was 15.5563, the “Fam123b value_2” value (gene Fam123b, mRNA-Seq, sample Day_6_JQ1) was 9.43 and the “Fam83d value_2” value (gene Fam83d, mRNA-Seq, sample Day_6_JQ1) was 24.1741. For the same molecule, the “Fbln1 value_2” value (gene Fbln1, mRNA-Seq, sample Day_6_JQ1) was 13.4635, the “Fbln5 value_2” value (gene Fbln5, mRNA-Seq, sample Day_6_JQ1) was 79.5082 and the “Fgfr2 value_2” value (gene Fgfr2, mRNA-Seq, sample Day_6_JQ1) was 86.0077. The “Fhl1 value_2” value (gene Fhl1, mRNA-Seq, sample Day_6_JQ1) was 503.063, the “Figf value_2” value (gene Figf, mRNA-Seq, sample Day_6_JQ1) was 27.0541 and the “Gamt value_2” value (gene Gamt, mRNA-Seq, sample Day_6_JQ1) was 12.8445. The “Gdf11 value_2” value (gene Gdf11, mRNA-Seq, sample Day_6_JQ1) was 22.9531, the “Ghr value_2” value (gene Ghr, mRNA-Seq, sample Day_6_JQ1) was 60.5749 and the “H1fx value_2” value (gene H1fx, mRNA-Seq, sample Day_6_JQ1) was 50.515. For the same molecule, the “H2afx value_2” value (gene H2afx, mRNA-Seq, sample Day_6_JQ1) was 155.278, the “H19 value_2” value (gene H19, mRNA-Seq, sample Day_6_JQ1) was 82.2113 and the “Hist1h1c value_2” value (gene Hist1h1c, mRNA-Seq, sample Day_6_JQ1) was 246.293. The “Hmcn1 value_2” value (gene Hmcn1, mRNA-Seq, sample Day_6_JQ1) was 13.3966, the “Hmgn3 value_2” value (gene Hmgn3, mRNA-Seq, sample Day_6_JQ1) was 59.5606 and the “Hspa2 value_2” value (gene Hspa2, mRNA-Seq, sample Day_6_JQ1) was 19.5751. The “Igf2r value_2” value (gene Igf2r, mRNA-Seq, sample Day_6_JQ1) was 67.7147, the “Igfbp6 value_2” value (gene Igfbp6, mRNA-Seq, sample Day_6_JQ1) was 52.4488 and the “Isyna1 value_2” value (gene Isyna1, mRNA-Seq, sample Day_6_JQ1) was 113.425. For the same molecule, the “Itga1 value_2” value (gene Itga1, mRNA-Seq, sample Day_6_JQ1) was 101.182, the “Itm2a value_2” value (gene Itm2a, mRNA-Seq, sample Day_6_JQ1) was 59.8717 and the “Kif23 value_2” value (gene Kif23, mRNA-Seq, sample Day_6_JQ1) was 11.9374. For the same molecule, the “Kifc1 value_2” value (gene Kifc1, mRNA-Seq, sample Day_6_JQ1) was 15.9311, the “Klhl13 value_2” value (gene Klhl13, mRNA-Seq, sample Day_6_JQ1) was 100 and the “Lama1 value_2” value (gene Lama1, mRNA-Seq, sample Day_6_JQ1) was 16.8277. For the same molecule, the “Lum value_2” value (gene Lum, mRNA-Seq, sample Day_6_JQ1) was 485.984, the “Mad2l1 value_2” value (gene Mad2l1, mRNA-Seq, sample Day_6_JQ1) was 31.9743 and the “Mapk8ip1 value_2” value (gene Mapk8ip1, mRNA-Seq, sample Day_6_JQ1) was 16.3375. For the same molecule, the “Meis1 value_2” value (gene Meis1, mRNA-Seq, sample Day_6_JQ1) was 24.7836, the “Mmp17 value_2” value (gene Mmp17, mRNA-Seq, sample Day_6_JQ1) was 25.3895 and the “Mxd4 value_2” value (gene Mxd4, mRNA-Seq, sample Day_6_JQ1) was 76.146. For the same molecule, the “Ncapd2 value_2” value (gene Ncapd2, mRNA-Seq, sample Day_6_JQ1) was 18.5667, the “Ncapg2 value_2” value (gene Ncapg2, mRNA-Seq, sample Day_6_JQ1) was 11.6063 and the “Ncaph value_2” value (gene Ncaph, mRNA-Seq, sample Day_6_JQ1) was 16.1078. For the same molecule, the “Nek2 value_2” value (gene Nek2, mRNA-Seq, sample Day_6_JQ1) was 11.522, the “Nusap1 value_2” value (gene Nusap1, mRNA-Seq, sample Day_6_JQ1) was 10.0613 and the “Pcsk6 value_2” value (gene Pcsk6, mRNA-Seq, sample Day_6_JQ1) was 16.0741. The “Pcyox1 value_2” value (gene Pcyox1, mRNA-Seq, sample Day_6_JQ1) was 135.704, the “Peg3 value_2” value (gene Peg3, mRNA-Seq, sample Day_6_JQ1) was 37.0421 and the “Peg10 value_2” value (gene Peg10, mRNA-Seq, sample Day_6_JQ1) was 121.813. For the same molecule, the “Pkia value_2” value (gene Pkia, mRNA-Seq, sample Day_6_JQ1) was 28.0014.
